From PMC8414367, “(E)-7-Ethylidene-lithocholic Acid (7-ELCA) Is a Potent Dual Farnesoid X Receptor (FXR) Antagonist and GPBAR1 Agonist Inhibiting FXR-Induced Gene Expression in Hepatocytes and Stimulating Glucagon-like Peptide-1 Secretion From Enteroendocrine Cells” (Frontiers in Pharmacology, 2021)
pIC50: −log10 of the molar value.

Legend:
PPARβ/δ = PPARβ/δ (Homo sapiens, UniProt Q03181); assay: Nuclear receptor specificity luciferase reporter assay in HepG2 cells
Method: (§2) For transient transfection, HepG2 cells were seeded at the density of 40,000 cells/cm^2. […] The next day, cells were challenged with tested ligands in indicated concentrations for 5 h. […] All the other transient transfection reporter gene assays were performed with Lipofectamine® 3000 (ThermoFisher Scientific). Briefly, cells were transfected with 150 ng/well luciferase reporter gene constructs (p(DR3)3-luc, SHP-luc, p3A4-luc, pTAT-(GRE)2-TK-luc, p2B6-luc, pGL4.35[luc2P⁄9XGAL4UAS⁄Hygro]), FXRE-luc together with 100 ng/well of the corresponding full-length fragment nuclear receptor expression vectors (pSG5-hVDR, pSG5-hFXR, pSG5-hRXRα, pSG5-hPXR, CAR3 variant) or the ligand binding domains of human, pCMX-GAL4-hFXR, pCMX-GA4L-LXRα, pCMX-GA4L-LXRα, pCMX-GA4L-TRα, pCMX-GA4L-PPARα, pCMX-GAL4-PPARγ, pCMX-GAL4-PPARδ) and 30 ng/well of pRL-TK Renilla luciferase vector 24 h prior to the treatment. […] The firefly luciferase activity was measured using the Dual Luciferase® Reporter Assay System (Promega) and normalized to Renilla luciferase activity. Experiments in an agonistic mode were performed with OCA, CDCA or tested compounds (all compounds at 10 μM). […] EC50 and IC50 were calculated using GraphPad PRISM ver. […]
(§3) Data were normalized to Renilla luciferase activity and are expressed as fold activation relative to control (nontreated, NT) cells. […]

LXRβ = LXRβ (Homo sapiens, UniProt P55055); assay: as above
Sequence of LXRβ (P55055 222-460 limits assumed): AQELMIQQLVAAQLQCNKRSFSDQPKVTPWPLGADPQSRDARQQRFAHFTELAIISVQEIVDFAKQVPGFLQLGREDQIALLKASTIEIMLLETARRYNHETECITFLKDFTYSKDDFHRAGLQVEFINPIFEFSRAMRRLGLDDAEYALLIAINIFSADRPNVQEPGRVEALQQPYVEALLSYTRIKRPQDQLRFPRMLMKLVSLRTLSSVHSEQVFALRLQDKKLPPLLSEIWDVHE
Method: as §2, §3

GLUTag cells [1] = assay: MTS viability assay; assay type: cell-based, murine; conditions: Mus musculus, 24 h, read-out: IC50, cell viability
Method: In addition, we examined the potential effect of 7-ethylidene-lithocholic acid (7-ELCA) on viability in murine colonic GLUTag cells. IC50 for 7-ELCA in the cell line remains above 200 µM.
Figure S1. Cell viability in GluTag cells was determined using the Cell Titer 96 Aqueous One Solution Cell Proliferation Assay (Promega) after treatment with 7-ethylidene-lithocholic acid (7-ELCA) for 24 h. Vehicle (0.1% DMSO) and background (10% SDS; v/v, toxic control) controls of cell viability were set to be 100% and 0%, respectively. IC50 is greater than 200 µM.

PPARα = PPARα (Homo sapiens, UniProt Q07869); assay: Nuclear receptor specificity luciferase reporter assay in HepG2 cells
Sequence of PPARα (Q07869 239-466 limits assumed): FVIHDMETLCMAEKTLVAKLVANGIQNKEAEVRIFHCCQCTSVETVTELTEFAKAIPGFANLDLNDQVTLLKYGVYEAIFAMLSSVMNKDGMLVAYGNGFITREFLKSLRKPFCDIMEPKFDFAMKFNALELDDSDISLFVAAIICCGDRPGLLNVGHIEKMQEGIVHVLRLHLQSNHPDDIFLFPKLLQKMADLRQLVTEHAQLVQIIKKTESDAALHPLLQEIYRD
Method: as §2, §3

GLUTag cells [2] = assay: GLP-1 secretion in siRNA control or Gpbar1 siRNA transfected GLUTag cells; assay type: cell-based, murine; conditions: 10 µM, 1 h
Method: GLUTag cells were transfected with non-targeting scrambled siRNA (siRNA control) or with the combination of siRNAs specific for Gpbar1 (Silencer® Select Pre-designed siRNA, LOT# ASO2HKN6 and ASO2HKN7, Life Technologies, Carlsbad, CA, United States) twice at 24 and 72 h after seeding using Lipofectamine RNAiMAX reagent (Life Technologies, Carlsbad, CA, United States). GLUTag cells were then treated with tested molecules at the day 4 post-seeding.
(§1) FIGURE 8 Effects of 7-alkylated derivatives of CDCA and 7-ELCA on the membrane receptor GPBAR1. […] . (B) CRE-luc activation depends on the presence of GPBAR1. (C) Effects of LCA and 7-ELCA (both at 10 µM) on intracellular generation of cAMP in differentiated NCI-H716 cells after 30 min treatment. The increase in cAMP level (ΔcAMP) is presented as the difference between cAMP concertation in the treated sample after subtraction of the cAMP in the nontreated control sample. (D) Concentration-response curves for activation of GPBAR1 by LCA and 7-ELCA. EC50 values were calculated using nonlinear fitting of concentration-response curves. […] (G) 7-ELCA (10 µM) increases GLP-1 secretion in siRNA control but not in siRNA Gpbar1 transfected GLUTag cells after 1 h treatment. GLP-1 was normalized to protein concentration and GPBAR1 mRNA expression to GAPDH mRNA. Data are presented as a fold to control nontreated (NT) samples. […]

[3] = test system: GPBAR1 mRNA, NCI-H716 cells; assay: GPBAR1 mRNA expression in differentiated NCI-H716 cells; assay type: cell-based, human; conditions: 10 µM, 2 h
Method: FIGURE 8 Effects of 7-alkylated derivatives of CDCA and 7-ELCA on the membrane receptor GPBAR1. […]. (B) CRE-luc activation depends on the presence of GPBAR1. (C) Effects of LCA and 7-ELCA (both at 10 µM) on intracellular generation of cAMP in differentiated NCI-H716 cells after 30 min treatment. The increase in cAMP level (ΔcAMP) is presented as the difference between cAMP concertation in the treated sample after subtraction of the cAMP in the nontreated control sample. (D) Concentration-response curves for activation of GPBAR1 by LCA and 7-ELCA. EC50 values were calculated using nonlinear fitting of concentration-response curves. […] (G) 7-ELCA (10 µM) increases GLP-1 secretion in siRNA control but not in siRNA Gpbar1 transfected GLUTag cells after 1 h treatment. GLP-1 was normalized to protein concentration and GPBAR1 mRNA expression to GAPDH mRNA. Data are presented as a fold to control nontreated (NT) samples. Forskolin (FSK, 10 µM) was used as a GPBAR1-independent activator of cAMP production.

[4] = target: glucocorticoid receptor (GR) (Homo sapiens, UniProt P04150); assay: Nuclear receptor specificity luciferase reporter assay in HepG2 cells
Sequence of glucocorticoid receptor (GR) (P04150 whole entry): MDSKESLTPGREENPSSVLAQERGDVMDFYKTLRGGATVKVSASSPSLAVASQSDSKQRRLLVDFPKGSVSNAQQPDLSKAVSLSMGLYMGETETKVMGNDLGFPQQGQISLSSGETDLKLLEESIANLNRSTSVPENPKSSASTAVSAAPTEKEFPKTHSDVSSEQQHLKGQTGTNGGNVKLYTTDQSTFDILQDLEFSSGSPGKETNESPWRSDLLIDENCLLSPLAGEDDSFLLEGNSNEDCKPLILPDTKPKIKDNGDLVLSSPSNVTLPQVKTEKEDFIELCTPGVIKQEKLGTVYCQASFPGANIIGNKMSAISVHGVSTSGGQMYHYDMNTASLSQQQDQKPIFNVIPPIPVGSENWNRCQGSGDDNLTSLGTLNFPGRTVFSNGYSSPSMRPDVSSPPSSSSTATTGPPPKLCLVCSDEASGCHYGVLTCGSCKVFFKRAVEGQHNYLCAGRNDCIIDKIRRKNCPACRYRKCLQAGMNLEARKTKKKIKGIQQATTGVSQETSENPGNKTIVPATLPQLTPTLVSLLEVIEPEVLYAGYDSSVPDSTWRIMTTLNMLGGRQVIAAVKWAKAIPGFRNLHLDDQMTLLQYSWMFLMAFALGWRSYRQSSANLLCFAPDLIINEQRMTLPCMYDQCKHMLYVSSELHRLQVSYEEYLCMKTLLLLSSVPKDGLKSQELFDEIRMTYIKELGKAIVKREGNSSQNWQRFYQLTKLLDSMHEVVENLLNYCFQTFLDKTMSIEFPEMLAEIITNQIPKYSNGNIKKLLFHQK
Method: as §2, §3

NCI-H716 cells = assay: cAMP determination (cAMP-Glo) in differentiated NCI-H716 cells; assay type: cell-based, human; conditions: 10 µM, 30 min, compared to 10 µM LCA
Method: Differentiated NCI-H716 cells were serum-starved, washed in PBS, and the cell culture medium was changed to Hanks' Balanced Salt solution (HBSS) supplemented with 0.2% (w/v) BSA and 500 µM 3-isobutyl-1-methylxanthine and incubated for 45 min at 37°C. Cells were stimulated with tested compounds or forskolin for 30 min, and the amount of cAMP generated was measured using the cAMP-Glo™ Assay (V1501, Promega, […], United States). The changes in cAMP levels (ΔcAMP) are presented as cAMP levels in treated samples after subtraction of the cAMP levels in the nontreated (NT) samples.
as §1, with “treatment.” for “treatment. GLP-1 was normalized to protein concentration and GPBAR1 mRNA expression to GAPDH mRNA. Data are presented as a fold to control nontreated (NT) samples.”

PPARγ = PPARγ (Homo sapiens, UniProt P37231); assay: Nuclear receptor specificity luciferase reporter assay in HepG2 cells
Sequence of PPARγ (P37231 238-503 limits assumed): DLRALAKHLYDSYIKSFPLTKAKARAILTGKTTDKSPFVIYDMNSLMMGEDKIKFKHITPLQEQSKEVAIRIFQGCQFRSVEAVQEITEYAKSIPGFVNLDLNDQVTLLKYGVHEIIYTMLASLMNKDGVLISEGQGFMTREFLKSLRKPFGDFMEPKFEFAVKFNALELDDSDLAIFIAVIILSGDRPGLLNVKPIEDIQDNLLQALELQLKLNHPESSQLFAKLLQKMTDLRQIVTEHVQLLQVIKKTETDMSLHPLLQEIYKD
Method: as §2, §3

LXRα = LXRα (Homo sapiens, UniProt Q13133); assay: as above
Sequence of LXRα (Q13133 209-447 limits assumed): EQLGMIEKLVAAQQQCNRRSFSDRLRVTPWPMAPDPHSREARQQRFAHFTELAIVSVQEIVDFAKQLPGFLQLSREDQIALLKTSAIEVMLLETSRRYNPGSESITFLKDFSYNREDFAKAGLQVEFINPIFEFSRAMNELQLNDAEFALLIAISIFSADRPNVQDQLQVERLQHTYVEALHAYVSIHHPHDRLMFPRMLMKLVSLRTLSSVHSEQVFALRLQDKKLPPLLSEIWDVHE
Method: as §2, §3

Sequence of PPARβ/δ (Q03181 211-439 limits assumed): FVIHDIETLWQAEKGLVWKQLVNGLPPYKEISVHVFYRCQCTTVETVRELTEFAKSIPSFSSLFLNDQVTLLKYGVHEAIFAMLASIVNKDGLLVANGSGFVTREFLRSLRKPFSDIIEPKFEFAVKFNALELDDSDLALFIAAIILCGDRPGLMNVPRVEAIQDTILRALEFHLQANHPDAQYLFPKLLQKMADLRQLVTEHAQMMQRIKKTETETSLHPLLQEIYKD

In the case of `C/C=C1\C[C@@H]2C[C@H](O)CC[C@]2(C)[C@H]2CC[C@]3(C)[C@@H]([C@H](C)CCC(=O)O)CC[C@H]3[C@H]12` [2a, (E)-3α-Hydroxy-7-ethylidene-5β-cholan-24-oic acid], the “antagonism of PPARβ/δ activation by model ligand” value (PPARβ/δ; 10 µM, with GW501516 1 µM) was “did not antagonize”, the “activation of PPARβ/δ” value (PPARβ/δ; agonistic assay, 24 h) was “did not activate” and the “antagonism of LXRβ activation by model ligand” value (LXRβ; 10 µM, with GW3965 1 µM) was “did not antagonize”. For the same compound, the “activation of LXRβ” value (LXRβ; agonistic assay, 24 h) was “did not activate”, the pIC50 (GLUTag cells [1]) was < 3.70 and the “antagonism of PPARα activation by model ligand” value (PPARα; 10 µM, with fenofibrate 1 µM) was “did not antagonize”. For the same compound, the “activation of PPARα” value (PPARα; agonistic assay, 24 h) was “did not activate”, the GLP-1 secretion (GLUTag cells [2]; Gpbar1 siRNA transfected GLUTag cells) was “did not lead to the significantly increased GLP-1 production” and the GLP-1 secretion (GLUTag cells [2]; siRNA control GLUTag cells) was “significant increase of the GLP-1 secretion”. For the same compound, the “GPBAR1 mRNA expression” value [3] was “increase GPBAR1 mRNA expression”, the “antagonism of GR activation by model ligand” value ([4]; 10 µM, with dexamethasone 50 nM) was “did not antagonize” and the “activation of GR” value ([4]; agonistic assay, 24 h) was “did not activate”. The “intracellular generation of cAMP” value (NCI-H716 cells) was “more significant production of cAMP”, the “antagonism of PPARγ activation by model ligand” value (PPARγ; 10 µM, with rosiglitazone 1 µM) was “did not antagonize” and the “activation of PPARγ” value (PPARγ; agonistic assay, 24 h) was “did not activate”. For the same compound, the “antagonism of LXRα activation by model ligand” value (LXRα; 10 µM, with GW3965 1 µM) was “did not antagonize” and the “activation of LXRα” value (LXRα; agonistic assay, 24 h) was “did not activate”.
